Experimental data as given in ChEMBL document CHEMBL5042522, “One- and Two-Photon Uncaging of Carbon Monoxide (CO) with Real-Time Monitoring: On-Demand Carbazole-Based Dual CO-Releasing Platform to Test over Single and Combinatorial Approaches for the Efficient Regression of Orthotopic Murine Melanoma In Vivo” (J Med Chem, 2022).

Assays:
[1] = Stability of compound in PBS buffer at pH 7.4 at 100 uM incubated for 72 hrs under dark condition in presence of cysteine by Reverse-phase HPLC analysis; type: physicochemical; conditions: read-out: Stability
[2] = Photorelease ability in PBS buffer at pH 7.4 assessed as retention time of compound decomposition at 100 uM irradiated with >= 365 nm Hg lamp for 30 mins by RP-HPLC analysis; type: physicochemical; conditions: pH 7.4, 0.5 h
[3] = Photorelease ability in PBS buffer at pH 7.4 assessed as retention time of 4-(6-(2,2-dihydroxyacetyl)-9-ethyl-9H-carbazol-3-yl)-1,3-dioxol-2-one formation at 100 uM irradiated with >= 365 nm Hg lamp for 30 mins by RP-HPLC analysis; type: physicochemical; conditions: pH 7.4, 0.5 h
[4] = Photorelease ability in PBS buffer at pH 7.4 assessed as retention time of 1,1'-(9-ethyl-9H-carbazole-3,6-diyl)bis(2,2-dihydroxyethanone) formation at 100 uM irradiated with >= 365 nm Hg lamp for 30 mins by RP-HPLC analysis; type: physicochemical; conditions: pH 7.4, 0.5 h
[5] = Photorelease ability in PBS buffer at pH 7.4 assessed as compound decomposition at 100 uM irradiated with >= 365 nm Hg lamp upto 30 mins by UV absorption spectroscopy; type: physicochemical; conditions: read-out: Drug degradation
[6] = Photorelease activity in PBS buffer at pH 7.4 assessed as release of CO using 3',6'-Bis(allyloxy)-3H-spiro(isobenzofuran-1,9'-xanthen)-3-one fluorescent probe by measuring red shift absorption spectra at 500 uM irradiated with >= 365 nm Hg lamp in presence of PdCl2 by absorption spectroscopy; type: physicochemical; conditions: pH 7.4, 500 µM, TDE = time-dependent effect
[7] = Photorelease activity in PBS buffer at pH 7.4 assessed as release of CO using 3',6'-Bis(allyloxy)-3H-spiro(isobenzofuran-1,9'-xanthen)-3-one fluorescent probe by measuring increase in fluorescence intensity irradiated with >= 365 nm Hg lamp at 500 uM in presence of PdCl2 by fluorescence spectroscopy; type: physicochemical; conditions: pH 7.4, 500 µM, TDE = time-dependent effect
[8] = Photorelease activity in PBS buffer at pH 7.4 assessed as release of CO using 3',6'-Bis(allyloxy)-3H-spiro(isobenzofuran-1,9'-xanthen)-3-one fluorescent probe at 500 uM irradiated with >= 365 nm Hg lamp for 30 mins in presence of PdCl2 by absorption spectroscopy; type: physicochemical; conditions: pH 7.4, 0.5 h
[9] = Photorelease activity in PBS buffer at pH 7.4 assessed as release of CO at 500 uM irradiated with pulsed laser at 730 nm for 30 mins by absorption spectroscopy; type: physicochemical; conditions: pH 7.4, 0.5 h
[10] = Photorelease activity in PBS buffer at pH 7.4 assessed as release of CO in absence of light irradiation by absorption spectroscopy; type: physicochemical
[11] = Photorelease activity in PBS buffer at pH 7.4 assessed as 1,1'-(9-ethyl-9H-carbazole-3,6-diyl)bis(2,2-dihydroxyethanone) photoproduct formation by measuring lambda 485 nm green emission band excited at wavelength of 350 nm for 30 mins by fluorescence spectroscopy; type: physicochemical; conditions: pH 7.4, 0.5 h
B16-F10 [12] = experiment: Photorelease activity in mouse B16-F10 cells assessed as uncaging of active molecules of drug by measuring green fluorescence at 20 uM incubated for 4 hrs irradiated with >= 365 nm Hg lamp for 5 mins and further incubated for 4 hrs by propidium iodide staining based confocal laser scanning microscopy; type: functional, cell-based; conditions: time 8.0 hrs
B16-F10 [13] = experiment: Cytotoxicity against mouse B16-F10 cells assessed as cell viability at 2.5 uM irradiated with >= 365 nm Hg lamp for 5 mins after 6 hrs post-treatment and further incubated for 72 hrs by MTT assay; type: functional; conditions: B16-F10, light or radiation study, time 78 hrs, read-out: Activity
HEK293 [14] = experiment: Induction of apoptosis in HEK293 cells assessed as early apoptotic cells at 5 uM incubated for 24 hrs by annexin-V-FITC and PI staining based flow cytometry analysis (reference value: 0.1 %); type: functional, Homo sapiens
HEK293 [15] = experiment: Induction of apoptosis in HEK293 cells assessed as late apoptotic cells at 5 uM incubated for 24 hrs by annexin-V-FITC and PI staining based flow cytometry analysis (reference value: 0 %); type: functional, Homo sapiens
HEK293 [16] = experiment: Induction of apoptosis in HEK293 cells assessed as necrotic cells at 5 uM incubated for 24 hrs by annexin-V-FITC and PI staining based flow cytometry analysis (reference value: 0 %); type: functional, Homo sapiens
HEK293 [17] = experiment: Induction of apoptosis in HEK293 cells assessed as viable cells at 5 uM with light irradiation incubated for 24 hrs by annexin-V-FITC and PI staining based flow cytometry analysis (reference value: 99.9 %); type: functional; conditions: Homo sapiens, HEK293, light or radiation study, read-out: Activity
HEK293 [18] = experiment: Induction of apoptosis in HEK293 cells assessed as late apoptotic cells at 5 uM with light irradiation incubated for 24 hrs by annexin-V-FITC and PI staining based flow cytometry analysis (reference value: 0 %); type: functional, Homo sapiens
B16-F10 [19] = experiment: Induction of apoptosis in mouse B16-F10 cells assessed as necrotic cells at 5 uM incubated for 24 hrs by annexin-V-FITC and PI staining based flow cytometry analysis (reference value: 0 %); type: functional
B16-F10 [20] = experiment: Induction of apoptosis in mouse B16-F10 cells assessed as late apoptotic cells at 5 uM with light irradiation incubated for 24 hrs by annexin-V-FITC and PI staining based flow cytometry analysis (reference value: 0.1 %); type: functional
[21] = Biodistribution in liver of C57BL/6 mouse model harboring mouse B16-F10 cells at 0.4 mg/kg, iv irradiated with >= 365 nm Hg lamp for 10 mins measured after 24 hrs post-administration by fluorescence based assay; type: ADME, organism-based; conditions: in vivo, 24.17 h, time 1450 min
[22] = Biodistribution in lung of C57BL/6 mouse model harboring mouse B16-F10 cells at 0.4 mg/kg, iv irradiated with >= 365 nm Hg lamp for 10 mins measured after 24 hrs post-administration by fluorescence based assay; type: ADME, organism-based; conditions: in vivo, 24.17 h, time 1450 min
[23] = Toxicity in C57BL/6J mouse model harboring mouse B16-F10 cells assessed as change in body weight at 0.4 mg/kg, iv administered alternate days for 24 days followed by irradiation with pulsed laser at 730 nm for 10 mins after 24 hrs each post-injection; type: organism-based; conditions: in vivo, 600 h, 0.73 µM, time 25 day
[24] = Toxicity in C57BL/6J mouse model harboring mouse B16-F10 cells assessed as heart tissue necrosis at 0.4 mg/kg, iv administered alternate days for 24 days followed by irradiation with pulsed laser at 730 nm for 10 mins after 24 hrs each post-injection by hematoxylin and eosin staining based assay; type: organism-based; conditions: in vivo, 600 h, 0.73 µM, time 25 day
[25] = Toxicity in C57BL/6J mouse model harboring mouse B16-F10 cells assessed as kidney tissue necrosis at 0.4 mg/kg, iv administered alternate days for 24 days followed by irradiation with pulsed laser at 730 nm for 10 mins after 24 hrs each post-injection by hematoxylin and eosin staining based assay; type: organism-based; conditions: in vivo, 600 h, 0.73 µM, time 25 day
[26] = Toxicity in C57BL/6J mouse model harboring mouse B16-F10 cells assessed as tumor tissue necrosis at 0.4 mg/kg, iv administered alternate days for 24 days followed by irradiation with pulsed laser at 730 nm for 10 mins after 24 hrs each post-injection by hematoxylin and eosin staining based assay; type: organism-based; conditions: in vivo, 600 h, 0.73 µM, time 25 day
[27] = Photolysis of compound in PBS buffer at pH 7.4 assessed as compound decomposition by measuring final photoproduct formation at 0.1 mM irradiated with >= 365 nm for 30 mins by RP-HPLC analysis; type: physicochemical; conditions: pH 7.4, 0.5 h, 100 µM

Compound: CCn1c2ccc(-c3coc(=O)o3)cc2c2cc(-c3coc(=O)o3)ccc21
- remaining at 72 h, 100 µM [1]: 92%
- Retention_time [2]: 6.21 min
- Retention_time [3]: 8.05 min
- Retention_time [4]: 8.82 min
- degraded at 0.5 h, 100 µM [5]: 100%
- Drug metabolism [6]: Tde
- Drug metabolism [7]: Tde
- Drug metabolism [8]: 12 ppm
- Drug metabolism [9]: 4.5 ppm
- Drug metabolism [10]: Not Active
- Drug metabolism [11]: Active
- Drug metabolism (B16-F10 [12]): 100%
- viability at 2.5 µM (B16-F10 [13]): 21%
- Activity (HEK293 [14]): 0.9%
- Activity (HEK293 [15]): 0.2%
- Activity (HEK293 [16]): 0%
- viability at 5 µM (HEK293 [17]): 46.4%
- Activity (HEK293 [18]): 7.3%
- Activity (B16-F10 [19]): 0%
- Activity (B16-F10 [20]): 15.4%
- Drug uptake [21]: Active
- Drug uptake [22]: Active
- Activity [23]: Non-Toxic
- Activity [24]: Non-Toxic
- Activity [25]: Non-Toxic
- Activity [26]: Toxic
- Drug degradation [27]: 89%
